# According to PubChem BioAssay (NCI):
#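 Method: 48-hour compound exposure of cells in 96-well plates, five concentrations, linear interpolation of endpoints. TGI is the concentration that stops growth completely.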
# Key:
# Assay in all cases: NCI-60 cell line screen, 48 h
# 786-0 renal = tested on: 786-0 renal
# A498 renal = tested on: A498 renal
# A549 NSCLC = tested on: A549 NSCLC
# ACHN renal = tested on: ACHN renal
# BT-549 breast = tested on: BT-549 breast
# CAKI-1 renal = tested on: CAKI-1 renal
# CCRF-CEM leukemia = tested on: CCRF-CEM leukemia
# COLO 205 colon = tested on: COLO 205 colon
# DU-145 prostate = tested on: DU-145 prostate
# EKVX NSCLC = tested on: EKVX NSCLC
# HCC-2998 colon = tested on: HCC-2998 colon
# HCT-116 colon = tested on: HCT-116 colon
# HCT-15 colon = tested on: HCT-15 colon
# HL-60(TB) leukemia = tested on: HL-60(TB) leukemia
# HOP-62 NSCLC = tested on: HOP-62 NSCLC
# HOP-92 NSCLC = tested on: HOP-92 NSCLC
# HS 578T breast = tested on: HS 578T breast
# HT29 colon = tested on: HT29 colon
# IGROV1 ovarian = tested on: IGROV1 ovarian
# K-562 leukemia = tested on: K-562 leukemia
# KM12 colon = tested on: KM12 colon
# LOX IMVI melanoma = tested on: LOX IMVI melanoma
# M14 melanoma = tested on: M14 melanoma
# MALME-3M melanoma = tested on: MALME-3M melanoma
# MCF7 breast = tested on: MCF7 breast
# MDA-N = tested on: MDA-N
# MOLT-4 leukemia = tested on: MOLT-4 leukemia
# NCI-H226 lung = tested on: NCI-H226 lung
# NCI-H23 lung = tested on: NCI-H23 lung
# NCI-H460 lung = tested on: NCI-H460 lung
# NCI-H522 lung = tested on: NCI-H522 lung
# NCI/ADR-RES ovarian = tested on: NCI/ADR-RES ovarian
# OVCAR-3 ovarian = tested on: OVCAR-3 ovarian
# OVCAR-4 ovarian = tested on: OVCAR-4 ovarian
# OVCAR-5 ovarian = tested on: OVCAR-5 ovarian
# OVCAR-8 ovarian = tested on: OVCAR-8 ovarian
# PC-3 prostate = tested on: PC-3 prostate
# RPMI-8226 leukemia = tested on: RPMI-8226 leukemia
# RXF 393 renal = tested on: RXF 393 renal
# SF-268 CNS = tested on: SF-268 CNS
# SF-295 CNS = tested on: SF-295 CNS
# SF-539 CNS = tested on: SF-539 CNS
# SK-MEL-2 melanoma = tested on: SK-MEL-2 melanoma
# SK-MEL-28 melanoma = tested on: SK-MEL-28 melanoma
# SK-MEL-5 melanoma = tested on: SK-MEL-5 melanoma
# SK-OV-3 ovarian = tested on: SK-OV-3 ovarian
# SN12C renal = tested on: SN12C renal
# SNB-19 CNS = tested on: SNB-19 CNS
# SNB-75 CNS = tested on: SNB-75 CNS
# SR leukemia = tested on: SR leukemia
# SW-620 colon = tested on: SW-620 colon
# T-47D breast = tested on: T-47D breast
# TK-10 renal = tested on: TK-10 renal
# U251 CNS = tested on: U251 CNS
# UACC-257 melanoma = tested on: UACC-257 melanoma
# UO-31 renal = tested on: UO-31 renal
# MDA-MB-231 breast = tested on: MDA-MB-231 breast
# MDA-MB-435 = tested on: MDA-MB-435
# UACC-62 melanoma = tested on: UACC-62 melanoma
smiles,measurement,setting,value
Cc1cc(S(=O)(=O)Nc2nc(N)nc(N3CCOCC3)n2)c(SCC(=O)O)cc1Cl,TGI,786-0 renal,> 10 µM
same,TGI,A498 renal,> 10 µM
same,TGI,A549 NSCLC,> 10 µM
same,TGI,ACHN renal,> 10 µM
same,TGI,BT-549 breast,> 10 µM
same,TGI,CAKI-1 renal,> 10 µM
same,TGI,CCRF-CEM leukemia,> 10 µM
same,TGI,COLO 205 colon,> 10 µM
same,TGI,DU-145 prostate,> 10 µM
same,TGI,EKVX NSCLC,> 10 µM
same,TGI,HCC-2998 colon,> 10 µM
same,TGI,HCT-116 colon,> 10 µM
same,TGI,HCT-15 colon,> 10 µM
same,TGI,HL-60(TB) leukemia,> 10 µM
same,TGI,HOP-62 NSCLC,> 10 µM
same,TGI,HOP-92 NSCLC,> 10 µM
same,TGI,HS 578T breast,> 10 µM
same,TGI,HT29 colon,> 10 µM
same,TGI,IGROV1 ovarian,> 10 µM
same,TGI,K-562 leukemia,> 10 µM
same,TGI,KM12 colon,> 10 µM
same,TGI,LOX IMVI melanoma,> 10 µM
same,TGI,M14 melanoma,> 10 µM
same,TGI,MALME-3M melanoma,> 10 µM
same,TGI,MCF7 breast,> 10 µM
same,TGI,MDA-N,> 10 µM
same,TGI,MOLT-4 leukemia,> 10 µM
same,TGI,NCI-H226 lung,> 10 µM
same,TGI,NCI-H23 lung,> 10 µM
same,TGI,NCI-H460 lung,> 10 µM
same,TGI,NCI-H522 lung,> 10 µM
same,TGI,NCI/ADR-RES ovarian,> 10 µM
same,TGI,OVCAR-3 ovarian,> 10 µM
same,TGI,OVCAR-4 ovarian,> 10 µM
same,TGI,OVCAR-5 ovarian,> 10 µM
same,TGI,OVCAR-8 ovarian,> 10 µM
same,TGI,PC-3 prostate,> 10 µM
same,TGI,RPMI-8226 leukemia,> 10 µM
same,TGI,RXF 393 renal,> 10 µM
same,TGI,SF-268 CNS,> 10 µM
same,TGI,SF-295 CNS,> 10 µM
same,TGI,SF-539 CNS,> 10 µM
same,TGI,SK-MEL-2 melanoma,> 10 µM
same,TGI,SK-MEL-28 melanoma,> 10 µM
same,TGI,SK-MEL-5 melanoma,> 10 µM
same,TGI,SK-OV-3 ovarian,> 10 µM
same,TGI,SN12C renal,> 10 µM
same,TGI,SNB-19 CNS,> 10 µM
same,TGI,SNB-75 CNS,> 10 µM
same,TGI,SR leukemia,> 10 µM
same,TGI,SW-620 colon,> 10 µM
same,TGI,T-47D breast,> 10 µM
same,TGI,TK-10 renal,> 10 µM
same,TGI,U251 CNS,> 10 µM
same,TGI,UACC-257 melanoma,> 10 µM
same,TGI,UO-31 renal,> 10 µM
OCCSCc1cc2c(O)c(c1)Cc1cc(CSCCO)cc(c1O)Cc1cc(CSCCO)cc(c1O)Cc1cc(CSCCO)cc(c1O)C2,TGI,786-0 renal,12.5 µM
same,TGI,A498 renal,17.3 µM
same,TGI,A549 NSCLC,20.4 µM
same,TGI,ACHN renal,9.61 µM
same,TGI,BT-549 breast,11.7 µM
same,TGI,CAKI-1 renal,9.63 µM
same,TGI,CCRF-CEM leukemia,68.2 µM
same,TGI,COLO 205 colon,7.31 µM
same,TGI,DU-145 prostate,23.5 µM
same,TGI,EKVX NSCLC,46.1 µM
same,TGI,HCC-2998 colon,23.1 µM
same,TGI,HCT-116 colon,13 µM
same,TGI,HCT-15 colon,33 µM
same,TGI,HL-60(TB) leukemia,> 100 µM
same,TGI,HOP-62 NSCLC,15.6 µM
same,TGI,HOP-92 NSCLC,15.2 µM
same,TGI,HS 578T breast,42.8 µM
same,TGI,HT29 colon,7.4 µM
same,TGI,IGROV1 ovarian,10.9 µM
same,TGI,K-562 leukemia,> 100 µM
same,TGI,KM12 colon,17.1 µM
same,TGI,LOX IMVI melanoma,11.9 µM
same,TGI,M14 melanoma,12.7 µM
same,TGI,MALME-3M melanoma,5.88 µM
same,TGI,MCF7 breast,14.5 µM
same,TGI,MDA-MB-231 breast,7.21 µM
same,TGI,MDA-MB-435,9.04 µM
same,TGI,MDA-N,11.8 µM
same,TGI,MOLT-4 leukemia,> 100 µM
same,TGI,NCI-H226 lung,37.5 µM
same,TGI,NCI-H23 lung,16.7 µM
same,TGI,NCI-H460 lung,7.84 µM
same,TGI,NCI-H522 lung,14.7 µM
same,TGI,NCI/ADR-RES ovarian,64.2 µM
same,TGI,OVCAR-3 ovarian,4.27 µM
same,TGI,OVCAR-4 ovarian,13.9 µM
same,TGI,OVCAR-5 ovarian,18.9 µM
same,TGI,OVCAR-8 ovarian,17.6 µM
same,TGI,PC-3 prostate,8.88 µM
same,TGI,RPMI-8226 leukemia,30.6 µM
same,TGI,RXF 393 renal,18.3 µM
same,TGI,SF-268 CNS,7.78 µM
same,TGI,SF-295 CNS,16.7 µM
same,TGI,SF-539 CNS,12.6 µM
same,TGI,SK-MEL-2 melanoma,5.25 µM
same,TGI,SK-MEL-28 melanoma,13.1 µM
same,TGI,SK-MEL-5 melanoma,4.4 µM
same,TGI,SK-OV-3 ovarian,31.7 µM
same,TGI,SN12C renal,22.7 µM
same,TGI,SNB-19 CNS,15.9 µM
same,TGI,SW-620 colon,15.1 µM
same,TGI,T-47D breast,26.3 µM
same,TGI,TK-10 renal,37 µM
same,TGI,U251 CNS,16.8 µM
same,TGI,UACC-257 melanoma,27.7 µM
same,TGI,UO-31 renal,28.3 µM
C/C(=N\NC(=O)/C(C#N)=C\c1ccc(N(CCC#N)CCC#N)cc1)c1ccccc1,TGI,786-0 renal,> 10 µM
same,TGI,A549 NSCLC,> 10 µM
same,TGI,ACHN renal,> 10 µM
same,TGI,BT-549 breast,> 10 µM
same,TGI,CAKI-1 renal,> 10 µM
same,TGI,COLO 205 colon,> 10 µM
same,TGI,DU-145 prostate,> 10 µM
same,TGI,EKVX NSCLC,> 10 µM
same,TGI,HCC-2998 colon,> 10 µM
same,TGI,HCT-116 colon,> 10 µM
same,TGI,HCT-15 colon,> 10 µM
same,TGI,HL-60(TB) leukemia,> 10 µM
same,TGI,HOP-62 NSCLC,> 10 µM
same,TGI,HOP-92 NSCLC,> 10 µM
same,TGI,HS 578T breast,> 10 µM
same,TGI,HT29 colon,> 10 µM
same,TGI,IGROV1 ovarian,> 10 µM
same,TGI,KM12 colon,> 10 µM
same,TGI,LOX IMVI melanoma,> 10 µM
same,TGI,M14 melanoma,> 10 µM
same,TGI,MALME-3M melanoma,> 10 µM
same,TGI,MCF7 breast,> 10 µM
same,TGI,MDA-MB-231 breast,> 10 µM
same,TGI,MDA-MB-435,> 10 µM
same,TGI,MDA-N,> 10 µM
same,TGI,MOLT-4 leukemia,> 10 µM
same,TGI,NCI-H226 lung,> 10 µM
same,TGI,NCI-H23 lung,> 10 µM
same,TGI,NCI-H460 lung,> 10 µM
same,TGI,NCI-H522 lung,> 10 µM
same,TGI,NCI/ADR-RES ovarian,> 10 µM
same,TGI,OVCAR-4 ovarian,> 10 µM
same,TGI,OVCAR-8 ovarian,> 10 µM
same,TGI,PC-3 prostate,> 10 µM
same,TGI,RPMI-8226 leukemia,> 10 µM
same,TGI,RXF 393 renal,> 10 µM
same,TGI,SF-268 CNS,> 10 µM
same,TGI,SF-295 CNS,> 10 µM
same,TGI,SF-539 CNS,> 10 µM
same,TGI,SK-MEL-28 melanoma,> 10 µM
same,TGI,SK-MEL-5 melanoma,> 10 µM
same,TGI,SK-OV-3 ovarian,> 10 µM
same,TGI,SN12C renal,> 10 µM
same,TGI,SNB-19 CNS,> 10 µM
same,TGI,SNB-75 CNS,> 10 µM
same,TGI,SR leukemia,> 10 µM
same,TGI,SW-620 colon,> 10 µM
same,TGI,T-47D breast,> 10 µM
same,TGI,TK-10 renal,> 10 µM
same,TGI,UACC-257 melanoma,> 10 µM
same,TGI,UACC-62 melanoma,> 10 µM
same,TGI,UO-31 renal,> 10 µM
